According to patent US20260234123A1, “Inhibitors of NLRP3” (Mwyngil Therapeutics, Inc., priority 2023, published 2026):
Where two headings read alike, the source gives them in different places.

System: IL1b release THP-1
Experiment: IL1b release THP-1 (ELISA)
Type: cell-based
Conditions: Homo sapiens
Experimental: Example A. Primary Assays Used to Determine IL1b Release THP-1 (ELISA)
• Microbiological safety cabinet, classII (NuAire, USA) • CO2 incubator (VWR Science, USA) • Countess Automated Cell Counter (Invitrogen, USA, cat. number C10227) • Centrifuge CM 6M (Elmi, Latvia) • Serological pipettes 2, 5, 10, 25, 50, 100 ml sterile (Santa Cruz Biotechnology, Inc., USA, sc-200277, sc-200279, sc-200281, sc-200283, Sc-213234, sc-516777) • Single and multichannel pipettes 0.2-10 μL, 50-1200 μL (Eppendorf AG-Hamburg, Germany) • 50 mL PP sterile tubes (Greiner, cat. Number 210261).
• RPMI-1640 (PanEco, C330) • Sodium pyruvate (Paneco, cat. number Φ023) • Non-Essential amino acids 50× (Paneco, Φ116) • Essential amino acids 50× (Paneco, Φ115/50) • FBS (Hyclone Laboratories Inc, USA, SV30160.03) • Antibiotic-antimycotic (Gibco, USA, 15240-062) • 2-mercaptoethanol 1000×55 mM (Gibco, USA, 21985-023) • LPS-EB ultrapure (invivogen, cat. number tlrl-3pelps) • Nigericin (Sigma, cat. number N7143) • ELISA kit, IL-1beta (Cat #A-8766, Interleukin-1 beta-EIA-BEST, Vector Best). LPS Preparation (5 mg/ml): • 1. Add 1 ml of endotoxin-free water according manufacturer's protocol • 2. Vortex until complete solubilization • 3. Aliquote and store at […] for long term storage.
• 1. Add methanol to 10 mg of powder to produce the 10 mM Nigericin solution • 2. Vortex until complete solubilization • 3. Store at 4° C.
THP-1 cells were propagated in RPMI-1640 (10% FBS, Antibiotic-antimycotic 1×, non-Essential amino acids 1×, Essential amino acids 1×, Sodium pyruvate 2×, 2-mercaptoethanol 0.05 mM) at 37° C. and at 5% CO2 in an incubator.
• 1. THP-1 cells were spined at 100 g for 5 min in 50 ml tube. • 2. THP-1 cells were resuspended in warm culture medium (w/o FBS, w/o Antibiotic-antimycotic, non-Essential amino acids 1×, Essential amino acids 1×, Sodium pyruvate 2×) to the concentration 1,3×10^6 cells. • 3. THP-1 cells were primed in tube with 1 μg/ml of LPS for 4 h at 37° C. and at 5% CO2 in an incubator. • 4. THP-1 cells were stimulated with 10 μM of Nigericin (Cat #N7143-10 MG, Sigma Aldrich) for 2 h at 37° C. and at 5% CO2 in an incubator. • 5. After the full activation, the supernatant was collected and the levels of IL-1β were assessed via ELISA according manufacturer instructions (Cat #A-8766, Vector Best).
The average EC50 values are shown in Table A, wherein “A” corresponds to EC50: A≤0.5 μM, “B” corresponds to 0.5 μM<EC50≤1.0 μM, “C” 1.0 μM<EC50≤5.0 μM, “D” corresponds to 5.0 μM<EC50≤30 μM and “E” corresponds to EC50>30 μM.

[1] = average EC50, THP-1 cells primed with 1 μg/ml LPS 4 h, stimulated with 10 μM Nigericin 2 h, IL-1β in supernatant by ELISA, read-out: THP 1 IL 1b, EC50

| Compound | EC50 [1] [µM] | EC50 (THP-1, read-out: THP 1 IL 1b, EC50, μM) [µM] |
| --- | --- | --- |
| Cc1cc(N[C@@H]2CCCN(C)C2)nnc1-c1ccc(C(F)(F)F)c2cn[nH]c12 [Compound 14, (R)-5-Methyl-N-(1-methylpiperidin-3-yl)-6-(4-(trifluoromethyl)-1H-indazol-7-yl)pyridazin-3-amine] | 1 to 5 | – |
| CCN1CCC[C@@H](Nc2cc(C(F)(F)F)c(-c3ccc(C(F)(F)F)cc3NS(C)(=O)=O)nn2)C1 [Compound 49, N-[2-[6-[[(3R)-1-ethyl-3-piperidyl]amino]-4-(trifluoromethyl)pyridazin-3-yl]-5-(trifluoromethyl)phenyl]methanesulfon-amide] | 1 to 5 | – |
| CCN1CCC[C@@H](Nc2cc(C)c(-c3ccc(C(F)(F)F)cc3NS(C)(=O)=O)nn2)C1 [Compound 5, (R)—N-(2-(6-((1-Ethylpiperidin-3-yl)amino)-4-methylpyridazin-3-yl)-5-(trifluoromethyl)phenyl) methanesulfonamide] | < 0.5 | – |
| CC(=O)Nc1cc(C(F)(F)F)ccc1-c1cc(C)c(N[C@@H]2CCCN(C(C)C)C2)nn1 [Compound 137, N-[2-[6-[[(3R)-1-isopropyl-3-piperidyl]amino]-5-methyl-pyridazin-3-yl]-5-(trifluoromethyl)phenyl]acetamide] | 1 to 5 | – |
| Cc1cc(N[C@@H]2CCCN(C3CC3)C2)nnc1-c1ccc(C(F)(F)F)cc1NS(C)(=O)=O [Compound 36, N-[2-[6-[[(3R)-1-cyclopropyl-3-piperidyl]amino]-4-methyl-pyridazin-3-yl]-5-(trifluoromethyl)phenyl]methanesulfon-amide] | < 0.5 | – |
| CN1CCC[C@@H](Nc2nnc(-c3ccc(C(F)(F)F)c4c3NS(=O)(=O)N4)cc2C(F)(F)F)C1 [Compound 93, 6-[2,2-dioxo-4-(trifluoromethyl)-1,3-dihydro-2lambda6,1,3-benzothiadiazol-7-yl]-N-[(3R)-1-methyl-3-piperidyl]-4-(trifluoromethyl)pyridazin-3-amine] | 5 to 30 | – |
| Cc1cc(-c2ccc(C(F)(F)F)cc2NS(C)(=O)=O)nnc1N[C@@H]1CCCN(C(C)C)C1 [Compound 25, (R)—N-(2-(6-((1-Isopropylpiperidin-3-yl)amino)-5-methylpyridazin-3-yl)-5-(trifluoromethyl)phenyl) methanesulfonamide] | – | < 0.5 |
| Cc1cc(N[C@@H]2CCCN(CCO)C2)nnc1-c1ccc(C(F)(F)F)cc1NS(C)(=O)=O [Compound 6, (R)—N-(2-(6-((1-(2-Hydroxyethyl)piperidin-3-yl)amino)-4-methylpyridazin-3-yl)-5-(trifluoromethyl)phenyl) methanesulfonamide] | 0.5 to 1 | – |
| CCNc1cc(C(F)(F)F)ccc1-c1cc(C)c(N[C@@H]2CCCN(C(C)C)C2)nn1 [Compound 114, 6-[2-(ethylamino)-4-(trifluoromethyl)phenyl]-N-[(3R)-1-isopropyl-3-piperidyl]-4-methyl-pyridazin-3-amine] | < 0.5 | – |
| CCN1CCC[C@@H](Nc2ccc(-c3c(C)cc(C(F)(F)F)cc3NS(C)(=O)=O)nn2)C1 [Compound 2, (R)—N-(2-(6-((1-Ethylpiperidin-3-yl)amino)pyridazin-3-yl)-3-methyl-5-(trifluoromethyl)phenyl) methanesulfonamide] | 0.5 to 1 | – |
| CCN1CCC[C@@H](Nc2cc(C)c(-c3ccc(C(F)(F)F)c4cn[nH]c34)nn2)C1 [Compound 15, (R)—N-(1-Ethylpiperidin-3-yl)-5-methyl-6-(4-(trifluoromethyl)-1H-indazol-7-yl)pyridazin-3-amine] | 1 to 5 | – |
| CCN1CCC[C@@H](Nc2nnc(-c3ccc(C(F)(F)F)cc3NS(=O)(=O)C3CC3)cc2C)C1 [Compound 64] | < 0.5 | – |
| CN1CCC[C@@H](Nc2nnc(-c3ccc(C(F)(F)F)cc3NS(C)(=O)=O)c3c2C2CCC3CC2)C1 [Compound 54, N-[2-[6-[[(3R)-1-methyl-3-piperidyl]amino]-4,5-diazatricyclo[6.2.2.02,7]dodeca-2(7),3,5-trien-3-yl]-5-(trifluoromethyl)phenyl]methanesulfon-amide] | 5 to 30 | – |
| Cc1cc(-c2ccc(C(F)(F)F)cc2NS(C)(=O)=O)nnc1N[C@@H]1CCCN(C2CCCC2)C1 [Compound 26, (R)—N-(2-(6-((1-Cyclopentylpiperidin-3-yl)amino)-5-methylpyridazin-3-yl)-5-(trifluoromethyl)phenyl) methanesulfonamide] | < 0.5 | – |
| CCN1CCC[C@@H](Nc2nnc(-c3ccc(C(F)(F)F)cc3NC(C)=O)cc2C)C1 [Compound 133, N-[2-[6-[[(3R)-1-ethyl-3-piperidyl]amino]-5-methyl-pyridazin-3-yl]-5-(trifluoromethyl)phenyl]acetamide] | 0.5 to 1 | – |
| CNc1cc(C(F)(F)F)ccc1-c1nnc(N[C@@H]2CCCN(C(C)C)C2)cc1C [Compound 108, N-[(3R)-1-isopropyl-3-piperidyl]-5-methyl-6-[2-(methylamino)-4-(trifluoromethyl)phenyl]pyridazin-3-amine] | < 0.5 | – |
| CC(C)=CCN1CCC[C@@H](Nc2cc(C)c(-c3ccc(C(F)(F)F)cc3NS(C)(=O)=O)nn2)C1 [Compound 48, (R)—N-(2-(4-Methyl-6-((1-(3-methylbut-2-en-1-yl)piperidin-3-yl)amino)pyridazin-3-yl)-5-(trifluoromethyl)phenyl) methanesulfonamide] | 0.5 to 1 | – |
| Cc1cc(N[C@@H]2CCCN(C3CCCCC3)C2)nnc1-c1ccc(C(F)(F)F)cc1NS(C)(=O)=O [Compound 41, N-[2-[6-[[(3R)-1-cyclohexyl-3-piperidyl]amino]-4-methyl-pyridazin-3-yl]-5-(trifluoromethyl)phenyl]methanesulfon-amide] | < 0.5 | – |
| Cc1cc(N[C@@H]2CCCN(C3CCCC3)C2)nnc1-c1ccc(C(F)(F)F)cc1NS(C)(=O)=O [Compound 33] | < 0.5 | – |
| Cc1cc(N[C@@H]2CCCN(C3CCC3)C2)nnc1-c1ccc(C(F)(F)F)cc1NS(C)(=O)=O [Compound 34] | < 0.5 | – |
| CCN1CCC[C@@H](Nc2nnc(-c3ccc(C(F)(F)F)c4cn[nH]c34)cc2C)C1 [Compound 18, (R)—N-(1-ethylpiperidin-3-yl)-4-methyl-6-(4-(trifluoromethyl)-1H-indazol-7-yl)pyridazin-3-amine] | > 30 | – |
| Cc1cc(N[C@@H]2CCCN(C(C)C)C2)nnc1-c1ccc(C(F)(F)F)cc1NC(=O)C(F)(F)C(F)(F)F [Compound 123, (R)-2,2,3,3,3-Pentafluoro-N-(2-(6-((1-isopropylpiperidin-3-yl)amino)-4-methylpyridazin-3-yl)-5-(trifluoromethyl)phenyl) propanamide] | 1 to 5 | – |
| Cc1cc(-c2ccc(C(F)(F)F)c3cn[nH]c23)nnc1N[C@@H]1CCCN(C)C1 [Compound 17, (R)-4-Methyl-N-(1-methylpiperidin-3-yl)-6-(4-(trifluoromethyl)-1H-indazol-7-yl)pyridazin-3-amine] | 5 to 30 | – |
| Cc1cc(N[C@@H]2CCCN(C)C2)nnc1-c1ccc(C(F)(F)F)c2nn[nH]c12 [Compound 20, (R)-5-Methyl-N-(1-methylpiperidin-3-yl)-6-(4-(trifluoromethyl)-1H-benzo[d][1,2,3]triazol-7-yl)pyridazin-3-amine] | > 30 | – |
| Cc1cc(N[C@@H]2CCCN(C(C)C)C2)nnc1-c1ccc(C(F)(F)F)cc1Nc1ccccc1 [Compound 112, 6-[2-anilino-4-(trifluoromethyl)phenyl]-N-[(3R)-1-isopropyl-3-piperidyl]-5-methyl-pyridazin-3-amine] | < 0.5 | – |
| Cc1cc(N[C@@H]2CCCN(CC(C)C)C2)nnc1-c1ccc(C(F)(F)F)cc1NS(C)(=O)=O [Compound 46, (R)—N-(2-(6-((1-Isobutylpiperidin-3-yl)amino)-4-methylpyridazin-3-yl)-5-(trifluoromethyl)phenyl) methanesulfonamide] | 0.5 to 1 | – |
